# Laboratory results published in EP4635966A1, “SYNTHETIC VARIANTS OF THE GANGLIOSIDE NGCGM3 AND USE THEREOF IN CANCER TREATMENT” (Centro de Inmunologia Molecular, priority 2022, dated 2024).
# Tests used:
# P3X63 myeloma cells = test: Subcutaneous P3X63 myeloma tumor growth (tumor volume); format: in vivo, BALB/c mice; conditions: day 5
# Protocol: 1x10^6 P3X63 cells were implanted subcutaneously into syngeneic BALB/c mice. Animals were randomized, divided into groups of 6-8 and received intraperitoneal treatments with 200 µg NGcGM3 d18:1-C24:1 ganglioside, αGalCer or vehicle (5.6% sucrose solution, 0.75% L-histidine and 0.5% Tween20 0.5%) on days 1, 5 and 9. Tumor diameters were measured with a caliper and tumor volume (TV) was calculated according to the formula: TV (mm^3) = π/6 × major diameter × (minor diameter)^2. […] The individual tumor volume values of the animals in each group and the mean and standard deviation of the mean in each case on day 5 of the experiment are shown. […] Table 1. Percentage distribution of tumor volume of the animals in each group.
# 1x10^6 P3X63 myeloma cells were implanted subcutaneously into syngeneic BALB/c mice. Animals were randomized, divided into groups of 6-8 and received treatments with vehicle solution (5.6% sucrose, 0.75% L-histidine and 0.5% Tween-20), αGalCer, NGcGM3 d18:1-C24:1 or nanoparticles of OMPC and NGcGM3 d18:1-C24:1 (GlycoVax 24:1) on days 1, 5 and 9.
# Subcutaneous tumor diameters were measured every 2-3 days with a caliper and TV was calculated according to the formula: TV (mm^3) = π/6 × major diameter × (minor diameter)^2. […]
# iNKT cells = test: In vivo iNKT cell activation: serum IFNγ by ELISA after i.p. injection; set-up: species or system C57BL/6 mice; conditions: 200 µg i.p.; blood 16 hours after administration; Figure 7
# Protocol: C57BL/6 mice were injected intraperitoneally with 200 µg of natural NGcGM3 ganglioside, NGcGM3 d18:1-C24:1, NGcGM3 d18:1-C 18:0 and 2 µg of αGalCer or vehicle (5.6 % sucrose, 0.75 % L-histidine and 0.5 % Tween-20) and blood was drawn 16 hours after the administration. Serum IFNγ levels were assessed by ELISA as an indirect measure of iNKT cell activation (Mouse IFNy ELISA Ready-SET-Go!, eBioscience).
# [1] = tested on: FF13 mouse iNKT-cell hybridoma; test: In vitro iNKT cell activation: bmDC co-cultured with FF13 hybridoma, IL-2 by ELISA; format: cell-based; conditions: for activation of iNKT cell hybridoma (IL-2 secretion): Example 6
# Protocol: The FF13 mouse iNKT-cell hybridoma previously described by Schumann J. (Schumann J. Eur J Immunol. 2007, 37:1431-41) was provided by Dr. Lucia Mori (University Hospital Basel, Switzerland) and was cultured in RPMI-1640 medium with GlutaMAX-I and 25 mM HEPES supplemented with 10 % heat-inactivated fetal bovine serum (FBS), 100 U/ml penicillin, 100 µg/ml streptomycin and 55 µM 2-mercaptoethanol.
# Mature bone marrow precursor-derived dendritic cells (bmDC) were used as APCs for in vitro iNKT cell activation assays and in vivo adoptive transfer experiments. The bmDCs were obtained according to the previously described protocol of differentiation from bone marrow progenitors in the presence of granulocyte/macrophage colony stimulating factor (GM-CSF) (Inaba K. J ExpMed.1992, 176:1693-1702) with some modifications. Briefly, bone marrow progenitors were isolated from femurs and tibias of C57BL/6 mice and cultured in complete RPMI-1640 medium (RPMI-1640 with GlutaMAX-I, 10% FBS, 100 U/mL penicillin, 100 µg/mL streptomycin and 55 µM 2-mercaptoethanol) supplemented with 20 ng/mL GM-CSF (R&D Systems). The culture was fed with fresh medium on day 3 and maturation of bmDCs was induced with 1 µg/ml LPS. On day 7, cells were harvested and used for iNKT cell activation assays or adoptive transfer.
# 5x10^4 bmDC were grown in RPMI-1640 medium with 10% FBS in the presence of αGalCer at a concentration of 100 ng/ml and concentrations of 0.1, 1 and 10 µg/ml of natural NGcGM3 and the synthetic variants NGcGM3 d18:1-C24:1, NGcGM3 d18:1-C24:0, NGcGM3 d18:1-C18:0, NGcGM3 d18:1-C18:1 and NGcGM3 d18:1-C18:2 or vehicle (0.1 % DMSO) for 16 -24 hours. Then, 10^5 FF13 hybridoma cells were added and co-cultured with the bmDCs for 24 hours. The culture supernatants were collected and evaluated for IL-2 content by ELISA. […] Differences were observed between the NGcGM3 variants in terms of their antigenicity to iNKT cells based on the length and structure of the fatty acid in the ceramide.
# 5x10^4 bmDC were cultured in RPMI-1640 medium with 10% FBS in the presence of 10 µg/ml and 1 µg/ml of NGcGM3 d18:1-C24:1 ganglioside, GM3 d18:1-C24:1 or vehicle (0.1% DMSO) for 16-24 hours. Next, 10^5 FF13 hybridoma cells were added and co-cultured with the bmDCs for 24 hours. The culture supernatants were collected and IL-2 content quantified by ELISA. From Figure 8, the synthetic ganglioside variants NGcGM3 and GM3, with identical ceramide structure, have differences in their ability to stimulate iNKT cells.
# 5x10^4 bmDC were cultured in RPMI-1640 medium with 10% FBS in the presence of 100 ng/ml, 1 µg/ml or 10 µg/ml concentrations of nanoparticles, αGalCer or vehicle (0.1% DMSO) for 16 -24 hours. […] The culture supernatants were collected and IL-2 content quantified by ELISA. […]
# [2] = Example 5, Table 1, 1x10^6 P3X63 s.c., i.p. on days 1, 5 and 9 (200 µg NGcGM3 d18:1-C24:1)
# [3] = Example 10, Table 2, 1x10^6 P3X63 s.c., treatment on days 1, 5 and 9
smiles,measurement,setting,value
"CCCCCCCCC=CCCCCCCCCCCCCCC(=O)NC(COC1OC(CO)C(OC2OC(CO)C(O)C(OC3(C(=O)O)CC(O)C(NC(=O)CO)C(C(O)C(O)CO)O3)C2O)C(O)C1O)C(O)C=CCCCCCCCCCCCCC [NGcGM3 d18:1-C24:1, O-[3,5-didesoxy-5-hydroxyacetamido-D-glycero-α-D-galacto-2-nonupyranosyl-(2→3)-O-(β-D-galactopyranosyl)-(1→4)-β-D-glucopyranosyl-(1→1)-(2R,3S,4E)-2-tetracos-15-enamido-4-octadecene-1,3-diol]",TV < 36 mm^3 (percentage distribution of tumor volume of the animals),P3X63 myeloma cells; [2],50%
same,TV > 36 mm^3 (percentage distribution of tumor volume of the animals),P3X63 myeloma cells; [2],50%
same,TV < 36 mm^3 (percentage distribution of tumor volume of the animals),"P3X63 myeloma cells; Example 5, Table 1, 1x10^6 P3X63 s.c., i.p. on days 1, 5 and 9 (200 µg NGcGM3 d18:1-C24:1), listed as NGcGM3 24:1",50%
same,growth of subcutaneous tumors,"P3X63 myeloma cells; Example 5, p<0.001 for NGcGM3 d18:1-C24:1, p<0.05 for αGalCer vs placebo",significantly inhibited the growth of subcutaneous tumors
same,TV < 36 mm^3 (percentage distribution of tumor volume of animals),P3X63 myeloma cells; [3],50%
same,TV > 36 mm^3 (percentage distribution of tumor volume of animals),P3X63 myeloma cells; [3],50%
same,TV < 36 mm^3 (percentage distribution of tumor volume of animals),"P3X63 myeloma cells; Example 10, Table 2, 1x10^6 P3X63 s.c., treatment on days 1, 5 and 9, listed as NGcGM3 24:1",50%
same,antitumor effect (inhibition of tumor growth vs control group),"P3X63 myeloma cells; Example 10, p=0.0031 NGcGM3 d18:1-C24:1, p=0.0004 GlycoVax 24:1",significant inhibition of tumor growth
same,serum IFNγ levels (in vivo activation of iNKT cells),iNKT cells,higher than in the rest of the experimental groups
same,activation of iNKT cell hybridoma (IL-2 secretion),"[1]; 100 ng/ml, same concentration as αGalCer",able to activate iNKT cells
same,activation of iNKT cell hybridoma (IL-2 secretion),"[1]; 0.1, 1 and 10 µg/ml on bmDC 16-24 h, co-culture 24 h, Figure 6",potent activation of FF13 hybridoma cells
same,activation of iNKT cell hybridoma (IL-2 secretion),"[1]; highest concentration tested, 10 µg/ml, αGalCer reference at 100 ng/ml",surpass the effect of αGalCer
same,iNKT cell activation (IL-2 secretion) compared with GM3 d18:1-C24:1,"[1]; Example 8, 10 µg/ml and 1 µg/ml, Figure 8",more potent effect on iNKT cell activation than the GM3 variant
